Reference: ChEMBL document CHEMBL5214981, “Thionated aminofluorophthalimides reduce classical markers of cellular inflammation in LPS-challenged RAW 264.7 cells” (Bioorg Med Chem Lett, 2022)

What was measured:
RAW264.7 [1] = assay: Antiinflammatory activity in LPS-activated mouse RAW264.7 cells assessed as inhibition of nitrite production at 10 uM measured at 24 to 48 hrs after LPS stimulation by ELISA analysis relative to control; format: functional; set-up: scale not given: the % may be the effect or the level left; details: time 24-48 hrs
RAW264.7 [2] = assay: Antiinflammatory activity in LPS-activated mouse RAW264.7 cells assessed as inhibition of TNF-alpha production at 10 uM measured at 24 to 48 hrs after LPS stimulation by ELISA analysis relative to control; format: functional; set-up: scale not given: the % may be the effect or the level left; details: time 24-48 hrs
RAW264.7 [3] = assay: Cytotoxicity against LPS-activated mouse RAW264.7 cells assessed as reduction in cell viability at 10 uM measured at 24 to 48 hrs by MTS assay relative to control; format: toxicity, cell-based; details: raw264.7, 10 µM, time 24-48 hrs
[4] = Metabolic stability in human liver microsomes assessed as compound remaining at 10 uM using pH 7.4 phosphate buffer incubated for 60 mins in the presence of NADPH regenerating system by LC/MS analysis (reference value: 100%); format: ADME, Microsome; details: read-out: Stability
[5] = Metabolic stability in human liver microsomes assessed as compound remaining at 10 uM using pH 7.4 phosphate buffer incubated for 60 mins in the absence of NADPH regenerating system by LC/MS analysis (reference value: 100%); format: ADME, Microsome; details: read-out: Stability
[6] = Metabolic stability in human liver microsomes assessed as compound remaining at 10 uM using pH 7.4 phosphate buffer incubated for 30 mins in the absence of NADPH regenerating system by LC/MS analysis (reference value: 100%); format: ADME, Microsome; details: read-out: Stability
[7] = Metabolic stability in human liver microsomes assessed as compound remaining at 10 uM using pH 7.4 phosphate buffer incubated for 30 mins in the presence of NADPH regenerating system by LC/MS analysis (reference value: 100%); format: ADME, Microsome; details: read-out: Stability

remaining at 1 h, 10 µM [4]	remaining at 1 h, 10 µM [5]	remaining at 0.5 h, 10 µM [6]	remaining at 0.5 h, 10 µM [7]	SMILES	Activity (RAW264.7 [1])	Activity (RAW264.7 [2])	Activity (RAW264.7 [3])
				Nc1ccc(F)c2c1C(=O)N(C1CCC(=S)NC1=O)C2=O (centres undefined)	59%	107%	112.4%
				Nc1ccc(F)c2c1C(=O)N(C1CCC(=O)NC1=O)C2=O (centres undefined)	86%	98%	100.9%
41%	46%	71%	64%	Nc1ccc(F)c2c1C(=S)N(C1CCC(=S)NC1=O)C2=O (centres undefined)	22%	104.1%	95%
				CC(C)Nc1ccc(F)c2c1C(=O)N(C1CCC(=S)NC1=O)C2=O (centres undefined)	74.8%	94.4%	112.3%
				O=C1NC(=S)CCC1N1C(=O)c2c(F)ccc([N+](=O)[O-])c2C1=O (centres undefined)	4.7%	51.3%	44.9%
				CC(C)Nc1ccc(F)c2c1C(=S)N(C1CCC(=S)NC1=O)C2=O (centres undefined)	32.3%	74.7%	74.1%
				Nc1c(F)ccc2c1C(=S)N(C1CCC(=S)NC1=O)C2=O (centres undefined)	40%	114%	92%
				CC(C)Nc1ccc(F)c2c1C(=O)N(C1CCC(=O)NC1=O)C2=O (centres undefined)	110.1%	87.1%	99.9%
				O=C1CCC(N2C(=O)c3c(F)ccc([N+](=O)[O-])c3C2=O)C(=O)N1 (centres undefined)	56.8%	86%	104.9%
48%	53%	71%	68%	Nc1cccc2c1C(=S)N(C1CCC(=S)NC1=O)C2=O (centres undefined)	43%	113%	92%
				Nc1c(F)ccc2c1C(=O)N(C1CCC(=O)NC1=O)C2=O (centres undefined)	100%	93%	90%
				Nc1cccc2c1C(=O)N(C1CCC(=O)NC1=O)C2=O (centres undefined) [POMALIDOMIDE]	91%	95%	95%
